Entries after “also recorded” stand apart in the source; their conditions may differ.
What was measured:
[1] = test system: Leishmania infantum promastigote forms (MHOM/BR/BH46); test: In vitro leishmanicidal activity against promastigotes (Neubauer chamber counting); assay type: cell-based; settings: for SI (CC50/IC50): CC50 J774 macrophages / IC50 promastigotes; for IC50 / inhibition at 20 µM: Leishmania infantum; for IC50: 72 h, L. infantum promastigotes, linear regression; for inhibition at 20 µM: lowest concentration tested in the promastigote series (20–400 µM)
Protocol: For this study, the Leishmania infantum strain MHOM/BR/BH46 was used. It was maintained by cryopreservation in liquid nitrogen, using a preservation solution containing 10% dimethyl sulfoxide (DMSO) and 90% fetal bovine serum (FBS). For the experiments, the strain was reactivated and maintained in continuous culture in modified Schneider’s Drosophila medium, supplemented with 10% heat-inactivated fetal bovine serum (FBS), at a temperature of 26 °C, with subcultures performed every 72 h. The promastigote form was used for the in vitro assays, with growth observed and monitored through parasite counting using a Neubauer chamber (iNCYTO CChip DHC-N01, Cheonan-Si, Republic of Korea).
The in vitro leishmanicidal activity of compounds LT-70, LT-73, LT-75, LT-89, and amphotericin B was determined as described by Aliança et al., with adaptations. Promastigote forms of L. infantum (MHOM/BR/BH46) were maintained in Schneider’s medium supplemented with 10% fetal bovine serum (FBS), incubated at 26 °C. For experiments, parasites were subcultured and grown for 72 h until reaching stationary phase. Subsequently, they were adjusted to a concentration of 1 × 10^6 parasites/mL. Cultures were then incubated in the presence of the tested compounds (20–400 µM) and Amphotericin B was tested from 0.01 to 1.0 µM in preliminary range-finding assays, confirming an IC50 of 0.04 µM, both prepared in DMSO (final DMSO concentration < 1%), as well as a control containing only the diluent. Analyses were performed in technical triplicate and biological duplicate. Cultures were maintained at 26 °C for 72 h, with daily parasite counts performed using a Neubauer chamber. The median inhibitory concentration (IC50) was determined after 72 h by linear regression using SPSS 25.0 software for Mac. All assays were performed in 24-well flat-bottom plates (2 mL final volume per well), with parasite inoculum verified by Neubauer counting chamber. The compounds LT-73 and LT-75 were selected based on their best leishmanicidal performance and respective selectivity index (SI), calculated as the ratio between the cytotoxic concentration for 50% of host cells (CC50) and the IC50 obtained for parasites. […] IC50 and CC50 values were obtained by linear regression using […]. This method has been validated in our previous thiosemicarbazone publications. Each assay was conducted in triplicate across two independent biological experiments performed on separate days to ensure reproducibility and minimize batch effects. MTT was selected for consistency with the validated thiosemicarbazone protocol by Jacob et al., ensuring methodological coherence with prior data.

[2] = test system: L. infantum promastigotes; test: Apoptosis/necrosis by annexin V-FITC and propidium iodide flow cytometry; assay type: cell-based, Leishmania infantum; settings: 1× and 2× IC50, 72 h
Protocol: To evaluate cell death types induced by the compounds, promastigote forms of Leishmania infantum (2 × 10^6 cells/mL) were treated with concentrations corresponding to 1× and 2× IC50 of compounds LT-73 and LT-75 for 72 h. After incubation, cells were centrifuged at 3000× g for 5 min, washed with PBS, and subsequently with 1× Buffer Solution provided by the Annexin V-FITC apoptosis detection kit (BD Biosciences, San Jose, CA, USA). Cells were then resuspended in 100 µL Buffer Solution and stained with 5 µL Annexin V conjugated to FITC, incubated for 15 min at room temperature protected from light. After incubation, cells were washed again with 1× Buffer Solution and resuspended in 200 µL of the same buffer. Subsequently, 5 µL propidium iodide (PI) were added to each sample for identification of cells with compromised membrane integrity. Samples were transferred to flow cytometry tubes and analyzed on the FACSCalibur flow cytometer (Becton Dickinson, San José, CA, USA) equipped with CellQuest PRO Software (BD Biosciences; version 5.1), within 4 h after staining. Annexin V-FITC was excited at 488 nm, with fluorescence detected at 530/30 nm; propidium iodide (PI) was excited at 488 nm and detected at 585/42 nm. Single-stained controls for Annexin V-FITC and PI were included in order to apply spillover correction (compensation) between channels.

[3] = test system: L. infantum promastigote forms; test: Ultrastructural analysis (SEM/TEM) of promastigote forms; assay type: cell-based, Leishmania infantum; settings: promastigotes, 1× and 2× IC50 (Amphotericin B 1× IC50), 72 h
Protocol: Ultrastructural analysis of promastigote and axenic amastigote forms of L. infantum was performed as described by Silva et al., with adaptations. Promastigote and amastigote forms were cultured in modified Schneider’s medium supplemented with 10% fetal bovine serum (FBS), in a BOD incubator at 26 °C and 32 °C, respectively, until reaching the stationary growth phase (72 h). After adjusting cell concentration to 1 × 10^7 cells/mL, samples were incubated with compounds LT-73, LT-75, and amphotericin B at concentrations corresponding to the IC50 and 2× IC50 previously determined, as well as a DMSO control (1% diluted), for 72 h. During incubation, daily microscopic monitoring of cell morphology was performed.
After this period, cells were washed with PBS (phosphate-buffered saline) and fixed in a solution containing 2.5% glutaraldehyde and 4% formaldehyde in 0.1 M phosphate buffer (pH 7.4) for 24 h at 4 °C. For transmission electron microscopy (TEM), cells were post-fixed in 1% osmium tetroxide (OsO4) for 2 h in 0.1 M phosphate buffer (pH 7.2), dehydrated in increasing acetone series (30%, 50%, 70%, 90%, and 3× 100%), embedded in EPON resin, and subjected to ultrathin sectioning using an ultramicrotome. Sections were contrasted with 2% uranyl acetate for 30 min and 2.5% lead citrate for 10 min, then analyzed using a Tecnai G2 Spirit TEM (FEI).
For scanning electron microscopy (SEM), after primary fixation, cells were adhered to coverslips pre-treated with poly-L-lysine for 30 min. Then, cells were washed three times with 0.1 M phosphate buffer (pH 7.2), post-fixed in 1% OsO4 for 2 h, dehydrated in increasing ethanol series (30%, 50%, 70%, 90%, and 3× 100%), subjected to critical point drying using an HCP-2 device (Hitachi (Tokyo, Japan)), and gold-coated (20 nm) using a JFC-1100 device ((JEOL Ltd., Tokyo, Japan)). […]
All images were acquired under standardized laboratory protocols. A minimum of 50 parasites per condition were analyzed by two blinded investigators and no visible precipitation or crystallization occurred during fixation.

Structure (SMILES) | SI (CC50/IC50) [1] | IC50 [1] [µM] | inhibition at 20 µM [1] [%] | Cell death profile by annexin V/PI staining (in words) [2] | TEM ultrastructural alterations [3]
C[C@@H]1[C@H](O)[C@@H](C)/C=C/C=C/C=C/C=C/C=C/C=C/C=C/[C@H](O[C@@H]2O[C@H](C)[C@@H](O)[C@H](N)[C@@H]2O)C[C@@H]2O[C@](O)(C[C@@H](O)C[C@@H](O)[C@H](O)CC[C@@H](O)C[C@@H](O)CC(=O)O[C@H]1C)C[C@H](O)[C@H]2C(=O)O [Amphotericin B, reference compound] | 350 | 0.04 | 100 | induced apoptosis as the main form of cell death | membrane rupture, chromatin condensation, and mitochondrial swelling
S=C(N/N=C/c1c[nH]c2ncccc12)Nc1ccccc1 [LT-73] | >5.8 | 10 to 14 | 100 | predominantly induced AV+/PI− staining; also recorded: predominantly induced apoptosis; also recorded: able to induce phosphatidylserine externalization | disorganization of the plasma membrane, mitochondrial swelling, chromatin condensation, and the presence of numerous vacuoles
N#Cc1ccc2[nH]cc(/C=N/NC(=S)Nc3ccc(Cl)cc3)c2c1 [LT-75] | >7.1 | 10 to 14 | 100 | predominance of AV+/PI− staining; also recorded: predominantly induced apoptosis; also recorded: able to induce phosphatidylserine externalization | extensive damage to the plasma membrane and cytoskeleton
